Assays:
JAK2 = JAK2 (Homo sapiens, UniProt O60674); assay: JAK2 kinase inhibition, Calliper assay; type: biochemical; settings: physiological ATP concentration of 5 mM
[1] = system: C3H/HeJ mouse model of AA; assay: Taqman gene expression in mouse skin; type: in vivo; settings: Mean±SEM
Method: RNA was prepared according to a standard phenol‐chloroform total RNA extraction method where skin samples were homogenized in QIAzol® Lysis Reagent (QIAGEN Sciences, Maryland 20847, USA), added chloroform, vortexed and centrifuged for phase separation. The RNA containing phase was ethanol precipitated and purified on an Applied Biosystems 6100 Nucleic Acid Prep Station. RNA integrity was measured on the Fragment Analyzer platform (AATI, IA, USA) using standard sensitivity RNA analysis kit.
cDNA was synthesized from mouse skin RNA using the High Capacity cDNA Reverse Transcription Kit from Life Technologies. Gene expression was performed on the QuantStudio™ 7 Flex Real‐Time PCR System (Applied Biosystems, Foster City, CA, USA) using custom made TaqMan® Array Micro Fluidic Cards. Results were analyzed with the QuantStudio™ 7 Flex Real‐Time PCR System software. Detailed description in Supplementary materials.
RNA extraction: Frozen 20 mg skin biopsies were transferred to 2 mL eppendorf tubes placed on dry ice, added 5 stainless steel beads of 3 mm ø and 750 μL cold QIAzol® Lysis Reagent (QIAGEN Sciences, Maryland 20847, USA). The samples were mounted on a Mixer Mill Tissue Lyser (Retsch GmbH, Haan, Germany) and homogenized for 2 x 5 minutes at 30 Hz, then centrifuged for 1 minute at 6000g, added 150 μL CHCl3, vigorously shaken for 15 seconds and incubated for 3 minutes. After 15 minutes centrifugation at 6000g the aqueous RNA containing phase was transferred to a 96 deep well plate and mixed with an equal volume of 70 % Ethanol. The RNA-Ethanol precipitate was purified and DNase treated on a 6100 Nucleic Acid Prep Station (Applied Biosystems, Foster City, CA, USA). Total RNA was eluted in 100 μL Elution Buffer (Applied Biosystems, Foster City, CA, USA) and the concentrations were measured on the NanoDrop ND-1000 Spectrophotometer (Thermo Fischer Scientific, Wilmington, DE, USA) at 260 nm.
cDNA synthesis: cDNA synthesis was performed using the High Capacity cDNA Reverse Transcription Kit from Life Technologies (Applied Biosystems, Foster City, CA, USA) according to the manufacturer´s instructions. The cDNA samples were diluted with RNase free water to 100 ng/µL, in a later (experiment) to 200 ng/µL.
The gene expression results are shown as log2 Fold Change. With the calibrator group close to zero, up- or down regulation of the target genes are visualized as positive or negative values, making it easier to assess the size of, in particular, the down regulations.

JAK3 = target: T1, JAK3 (Homo sapiens, UniProt P52333); assay: JAK3 kinase inhibition, Calliper assay; type: biochemical; settings: physiological ATP concentration of 5 mM
T1 sequence (P52333 1-1124): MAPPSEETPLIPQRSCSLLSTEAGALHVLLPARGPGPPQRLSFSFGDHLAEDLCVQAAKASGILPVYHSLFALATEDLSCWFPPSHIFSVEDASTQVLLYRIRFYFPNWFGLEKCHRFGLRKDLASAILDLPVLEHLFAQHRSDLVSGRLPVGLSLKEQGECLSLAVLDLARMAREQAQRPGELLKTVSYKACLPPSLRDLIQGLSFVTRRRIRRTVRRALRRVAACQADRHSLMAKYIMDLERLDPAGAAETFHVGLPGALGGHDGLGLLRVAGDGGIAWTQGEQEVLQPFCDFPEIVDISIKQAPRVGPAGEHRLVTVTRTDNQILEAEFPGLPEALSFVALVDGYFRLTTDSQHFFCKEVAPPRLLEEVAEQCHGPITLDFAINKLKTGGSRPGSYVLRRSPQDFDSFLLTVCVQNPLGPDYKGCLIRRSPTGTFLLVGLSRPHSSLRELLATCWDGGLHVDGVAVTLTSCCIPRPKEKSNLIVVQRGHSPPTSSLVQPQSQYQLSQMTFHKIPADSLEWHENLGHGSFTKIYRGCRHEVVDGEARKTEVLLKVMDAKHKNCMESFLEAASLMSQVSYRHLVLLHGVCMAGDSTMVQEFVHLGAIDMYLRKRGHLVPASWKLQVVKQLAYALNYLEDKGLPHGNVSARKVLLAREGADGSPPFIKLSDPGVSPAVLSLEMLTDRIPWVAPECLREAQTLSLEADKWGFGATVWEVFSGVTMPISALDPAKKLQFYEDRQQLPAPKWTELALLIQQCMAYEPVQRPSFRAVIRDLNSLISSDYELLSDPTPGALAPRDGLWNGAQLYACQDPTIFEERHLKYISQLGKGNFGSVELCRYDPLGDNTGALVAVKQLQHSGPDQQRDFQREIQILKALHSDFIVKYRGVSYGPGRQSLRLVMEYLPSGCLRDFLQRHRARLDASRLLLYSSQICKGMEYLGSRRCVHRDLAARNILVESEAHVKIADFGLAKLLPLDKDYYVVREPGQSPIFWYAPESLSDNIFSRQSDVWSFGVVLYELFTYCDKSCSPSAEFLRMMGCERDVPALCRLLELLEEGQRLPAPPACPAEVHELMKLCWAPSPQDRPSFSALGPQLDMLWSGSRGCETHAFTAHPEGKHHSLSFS

LogD7.4 = type: physicochemical; settings: pH 7.4
From the text: TABLE 2 In vitro and in vivo DMPK properties of Cmpd A, B & C | column: In vitro mouse & physical chemical properties / LogD7.4

JAK1 = JAK1 (Homo sapiens, UniProt P23458); assay: JAK1 kinase inhibition, Calliper assay; type: biochemical; settings: physiological ATP concentration of 5 mM
Chain of JAK1 (P23458 whole entry, species assumed): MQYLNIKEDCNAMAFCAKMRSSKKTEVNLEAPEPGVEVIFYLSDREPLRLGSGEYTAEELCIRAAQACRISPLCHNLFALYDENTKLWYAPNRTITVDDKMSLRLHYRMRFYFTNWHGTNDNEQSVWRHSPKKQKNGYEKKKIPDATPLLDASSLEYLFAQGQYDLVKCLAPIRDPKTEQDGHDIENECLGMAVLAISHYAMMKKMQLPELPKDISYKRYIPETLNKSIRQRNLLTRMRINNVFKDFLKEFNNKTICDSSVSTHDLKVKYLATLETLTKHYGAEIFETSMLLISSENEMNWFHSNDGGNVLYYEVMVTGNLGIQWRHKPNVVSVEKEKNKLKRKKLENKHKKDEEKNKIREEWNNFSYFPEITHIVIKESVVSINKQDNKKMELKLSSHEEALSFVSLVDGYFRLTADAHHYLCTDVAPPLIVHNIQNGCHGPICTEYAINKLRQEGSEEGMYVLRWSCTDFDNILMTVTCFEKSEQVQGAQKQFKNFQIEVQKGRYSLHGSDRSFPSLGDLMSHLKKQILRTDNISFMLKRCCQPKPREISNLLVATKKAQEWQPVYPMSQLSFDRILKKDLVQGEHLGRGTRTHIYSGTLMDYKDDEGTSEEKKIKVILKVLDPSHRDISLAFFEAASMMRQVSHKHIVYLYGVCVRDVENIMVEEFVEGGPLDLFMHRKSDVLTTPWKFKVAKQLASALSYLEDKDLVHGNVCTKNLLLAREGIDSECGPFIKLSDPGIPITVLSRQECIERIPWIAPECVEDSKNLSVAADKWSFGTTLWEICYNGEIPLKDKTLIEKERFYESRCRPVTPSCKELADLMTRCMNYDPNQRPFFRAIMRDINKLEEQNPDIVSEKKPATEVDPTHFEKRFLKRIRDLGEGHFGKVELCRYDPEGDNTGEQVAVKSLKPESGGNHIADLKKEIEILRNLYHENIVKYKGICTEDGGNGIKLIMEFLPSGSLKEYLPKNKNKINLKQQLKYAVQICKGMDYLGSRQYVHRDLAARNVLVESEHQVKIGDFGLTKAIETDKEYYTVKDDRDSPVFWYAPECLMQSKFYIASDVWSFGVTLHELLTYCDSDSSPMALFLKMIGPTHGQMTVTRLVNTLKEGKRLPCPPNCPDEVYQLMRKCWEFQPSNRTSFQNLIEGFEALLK

IL‐13, STAT6‐Luc = assay: IL-13-induced JAK-STAT6-luciferase assay in U937 monocytes; type: cell-based; settings: Homo sapiens, U-937, interleukin at EC80
Basic pKa = type: physicochemical; settings: read-out: Basic pKa's
From the text: TABLE 2 In vitro and in vivo DMPK properties of Cmpd A, B & C | column: In vitro mouse & physical chemical properties / Basic pKa's

[2] = Plasma and skin exposure in treated AA mice; settings: AA mice
[3] = topical cream application (local)

Chain of JAK2 (O60674 whole entry, species assumed): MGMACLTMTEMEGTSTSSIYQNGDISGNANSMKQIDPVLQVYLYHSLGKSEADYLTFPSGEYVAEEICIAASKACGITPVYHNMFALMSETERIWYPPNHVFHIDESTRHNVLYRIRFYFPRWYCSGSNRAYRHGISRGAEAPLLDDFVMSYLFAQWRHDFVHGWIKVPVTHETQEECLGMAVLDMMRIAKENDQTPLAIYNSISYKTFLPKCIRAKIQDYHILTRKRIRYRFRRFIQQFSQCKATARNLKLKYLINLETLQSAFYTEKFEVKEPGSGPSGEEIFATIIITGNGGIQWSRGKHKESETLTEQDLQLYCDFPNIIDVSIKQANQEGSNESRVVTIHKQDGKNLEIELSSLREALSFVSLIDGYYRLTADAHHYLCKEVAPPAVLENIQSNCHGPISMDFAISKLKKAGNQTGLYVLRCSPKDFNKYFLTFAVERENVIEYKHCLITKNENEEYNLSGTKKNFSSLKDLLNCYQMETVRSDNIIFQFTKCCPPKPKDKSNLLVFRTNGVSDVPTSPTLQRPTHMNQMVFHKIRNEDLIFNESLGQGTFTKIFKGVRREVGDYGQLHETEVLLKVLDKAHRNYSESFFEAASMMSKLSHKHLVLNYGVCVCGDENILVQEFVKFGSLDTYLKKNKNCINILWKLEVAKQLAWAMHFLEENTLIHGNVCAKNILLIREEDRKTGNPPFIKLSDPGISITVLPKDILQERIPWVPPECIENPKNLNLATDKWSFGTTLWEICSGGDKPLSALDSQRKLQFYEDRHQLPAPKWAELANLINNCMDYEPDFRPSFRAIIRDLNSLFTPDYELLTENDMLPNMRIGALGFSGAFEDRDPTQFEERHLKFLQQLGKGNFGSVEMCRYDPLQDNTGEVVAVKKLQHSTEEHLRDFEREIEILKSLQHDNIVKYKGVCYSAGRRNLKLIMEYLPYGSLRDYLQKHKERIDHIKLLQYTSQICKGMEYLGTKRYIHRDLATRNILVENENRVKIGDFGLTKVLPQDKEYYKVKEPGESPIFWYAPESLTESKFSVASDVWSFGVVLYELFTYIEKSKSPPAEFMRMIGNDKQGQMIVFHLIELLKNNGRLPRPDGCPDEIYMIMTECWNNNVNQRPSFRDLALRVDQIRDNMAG

## Cc1cnc(Nc2cc(N3C[C@@H]4C[C@H]3CN4C)cnc2F)nc1N[C@H](C)[C@H](C)CO [Cmpd B, (2S,3R)-3-{[2-({2-fluoro-5-[(1S,4S)-5-methyl-2,5-diazabicyclo[2.2.1]heptan-2-yl]pyridin-3-yl}amino)-5-methylpyrimidin-4-yl]amino}-2-methylbutan-1-ol]
JAK2
  IC50: > 30000 nM
[1]; Local JAK1i (treated side)
  CD8a expression in skin, fold change (log2) from AA: 1.06 ± 0.63 (0.245, n=6) log2 fold change
  CXCL9 expression in skin, fold change (log2) from AA: 0.60 ± 0.50 (0.69, n=6) log2 fold change
  CXCL10 expression in skin, fold change (log2) from AA: 0.23 ± 0.49 (0.99, n=6) log2 fold change
  CXCL11 expression in skin, fold change (log2) from AA: 0.06 ± 0.63 (0.99, n=6) log2 fold change
  GZMB expression in skin, fold change (log2) from AA: 0.93 ± 0.35 (0.45, n=5) log2 fold change
  ICOS expression in skin, fold change (log2) from AA: 1.33 ± 0.18 (<0.001, n=4) log2 fold change
  Krt32 expression in skin, fold change (log2) from AA: -0.81 ± 0.70 (0.49, n=6) log2 fold change
  MX1 expression in skin, fold change (log2) from AA: 0.03 ± 0.38 (0.99, n=6) log2 fold change
  STAT1 expression in skin, fold change (log2) from AA: 1.09 ± 0.29 (<0.001, n=6) log2 fold change
[1]; Local JAK1i (untreated side)
  CD8a expression in skin, fold change (log2) from AA: 1.02 ± 0.71 (0.80, n=6) log2 fold change
  CXCL9 expression in skin, fold change (log2) from AA: 0.82 ± 0.65 (0.41, n=6) log2 fold change
  CXCL10 expression in skin, fold change (log2) from AA: -0.03 ± 0.74 (0.99, n=6) log2 fold change
  CXCL11 expression in skin, fold change (log2) from AA: 0.08 ± 0.76 (0.99, n=6) log2 fold change
  GZMB expression in skin, fold change (log2) from AA: 0.77 ± 0.37 (0.64, n=5) log2 fold change
  ICOS expression in skin, fold change (log2) from AA: 1.06 ± 0.29 (0.0018, n=5) log2 fold change
  Krt32 expression in skin, fold change (log2) from AA: -0.64 ± 0.71 (0.70, n=6) log2 fold change
  MX1 expression in skin, fold change (log2) from AA: 0.02 ± 0.41 (0.99, n=6) log2 fold change
  STAT1 expression in skin, fold change (log2) from AA: 1.07 ± 0.29 (<0.001, n=6) log2 fold change
JAK3
  IC50: > 30000 nM
LogD7.4
  logD: 1.5
JAK1
  IC50: 9.3 nM
IL‐13, STAT6‐Luc
  IC50: 100 nM
Basic pKa
  pKa: 8.6
[2]; [3]
  estimated average free exposure in plasma over IC50: 0.02 fold IC50
  estimated average free exposure in skin over IC50: 1.9 fold IC50

## COCC(C(=O)Nc1cccc2c(-c3nc(Nc4cccc(S(C)(=O)=O)c4F)ncc3F)c[nH]c12)N1CCN(C)CC1 (stereo not shown) [Cmpd C]
JAK3
  IC50: > 30000 nM
LogD7.4
  logD: 2.6
JAK1
  IC50: < 3 nM
Basic pKa
  pKa: 7.9

## Cc1cnc(Nc2cccnc2F)nc1-c1c[nH]c2c(NC(=O)[C@@H](C)N3CCN(C)CC3)cccc12 [Cmpd A]
JAK2
  IC50: 18000 nM
[1]; 8w off Tx
  CD8a expression in skin, fold change (log2) from AA: -0.32 ± 0.45 (0.97, n=6) log2 fold change
  CXCL9 expression in skin, fold change (log2) from AA: -0.33 ± 0.73 (0.96, n=6) log2 fold change
  CXCL10 expression in skin, fold change (log2) from AA: -0.32 ± 0.61 (0.97, n=6) log2 fold change
  CXCL11 expression in skin, fold change (log2) from AA: 0.43 ± 0.73 (0.93, n=6) log2 fold change
  GZMB expression in skin, fold change (log2) from AA: -0.81 ± 0.73 (0.099, n=3) log2 fold change
  ICOS expression in skin, fold change (log2) from AA: -0.05 ± 0.09 (0.34, n=2) log2 fold change
  Krt32 expression in skin, fold change (log2) from AA: -1.44 ± 0.98 (0.062, n=6) log2 fold change
  MX1 expression in skin, fold change (log2) from AA: -0.37 ± 0.41 (0.67, n=6) log2 fold change
  STAT1 expression in skin, fold change (log2) from AA: -0.30 ± 0.28 (0.67, n=6) log2 fold change
[1]; Systemic JAKi (oral, 4 weeks)
  CD8a expression in skin, fold change (log2) from AA: -2.56 ± 0.24 (<0.001, n=6) log2 fold change
  CXCL9 expression in skin, fold change (log2) from AA: -3.83 ± 0.47 (<0.001, n=6) log2 fold change
  CXCL10 expression in skin, fold change (log2) from AA: -3.28 ± 0.42 (<0.001, n=5) log2 fold change
  CXCL11 expression in skin, fold change (log2) from AA: -4.32 ± 0.36 (<0.001, n=5) log2 fold change
  ICOS expression in skin, fold change (log2) from AA: -1.05 ± 0.12 (0.0083, n=4) log2 fold change
  Krt32 expression in skin, fold change (log2) from AA: -3.16 ± 0.13 (<0.001, n=6) log2 fold change
  MX1 expression in skin, fold change (log2) from AA: -3.71 ± 0.21 (<0.001, n=6) log2 fold change
  STAT1 expression in skin, fold change (log2) from AA: -2.29 ± 0.25 (<0.001, n=6) log2 fold change
JAK3
  IC50: > 30000 nM
LogD7.4
  logD: 2.9
JAK1
  IC50: 27 nM
IL‐13, STAT6‐Luc
  IC50: 120 nM
Basic pKa
  pKa: 7.9
[2]; oral daily servings (systemic)
  estimated average free exposure in plasma over IC50: 1.2 fold IC50
  estimated average free exposure in skin over IC50: 0.1 fold IC50
